Reference: paper PMC7701510, “Identification of HN252 as a potent inhibitor of protein phosphatase PPM1B” (Journal of Cellular and Molecular Medicine, 2020)
Substitutions are numbered along the chain they refer to. Entries after “also recorded” stand apart in the source; their conditions may differ.

How the values were obtained:
PPM1B = biological target: T1, PPM1B (Homo sapiens, UniProt O75688); assay: pNPP hydrolysis phosphatase kinetic assay; assay type: biochemical
T1 construct: inferred from pET-28a vector and Ni-NTA purification; made in house; host or cells: Escherichia coli BL21
T1 sequence (O75688 1-479): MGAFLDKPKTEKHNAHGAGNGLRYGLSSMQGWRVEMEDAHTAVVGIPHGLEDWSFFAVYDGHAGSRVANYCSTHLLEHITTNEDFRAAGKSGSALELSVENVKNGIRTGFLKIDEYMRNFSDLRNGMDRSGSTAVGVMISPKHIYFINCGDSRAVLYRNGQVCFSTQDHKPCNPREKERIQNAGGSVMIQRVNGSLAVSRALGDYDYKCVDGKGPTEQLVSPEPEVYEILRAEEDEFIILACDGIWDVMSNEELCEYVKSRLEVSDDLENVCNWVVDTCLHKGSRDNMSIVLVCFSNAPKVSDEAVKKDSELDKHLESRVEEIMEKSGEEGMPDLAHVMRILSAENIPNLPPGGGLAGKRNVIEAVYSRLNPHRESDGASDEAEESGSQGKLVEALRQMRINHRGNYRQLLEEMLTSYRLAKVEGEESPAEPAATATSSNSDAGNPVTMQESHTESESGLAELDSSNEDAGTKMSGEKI
Method: (§1) Escherichia coli BL21 strain was transformed with pET‐28a bacterial expression vector harbouring PPM1B and its mutants. ^17 The fusion proteins were induced to be expressed with 0.5 mM isopropyl‐β‐D‐thiogalactoside (IPTG) and purified from bacterial lysate by Ni‐NTA chromatographic matrices (Qiagen) and AKTA FPLC (GE Healthcare Life Sciences) using a Superdex Increase 200 column.
(§2) The kinetic assays of PPM1B were carried out at 37°C in 0.1 M acetic acid buffer (50 mM Tris, 40 mM Mn^2+, pH 7.0). The p‐nitrophenyl phosphate (pNPP, Sigma) was used as the substrate which could be conveniently measured at 405 nm. Reactions were started by addition of pNPP to a reaction mixture containing PPM1B (0.4 μM PPM1B, final concentration) and various concentrations of HN252 and stopped by addition of 0.5 M EDTA (pH 10.0) after an appropriate time. The Km value of PPM1B towards pNPP hydrolysis (3.6 mM for pNPP) was used to determine the IC50. The IC50 values, the inhibition constant Ki and inhibition pattern were evaluated as previously described. ^18 The kinetic assays of HN252 towards to other protein phosphatases were carried out as previously described. ^19

PPM1G = biological target: T2, PPM1G (Homo sapiens, UniProt O15355); assay: pNPP hydrolysis phosphatase assay (selectivity panel); assay type: biochemical; conditions: pNPP as substrate
T2 sequence (O15355 1-546): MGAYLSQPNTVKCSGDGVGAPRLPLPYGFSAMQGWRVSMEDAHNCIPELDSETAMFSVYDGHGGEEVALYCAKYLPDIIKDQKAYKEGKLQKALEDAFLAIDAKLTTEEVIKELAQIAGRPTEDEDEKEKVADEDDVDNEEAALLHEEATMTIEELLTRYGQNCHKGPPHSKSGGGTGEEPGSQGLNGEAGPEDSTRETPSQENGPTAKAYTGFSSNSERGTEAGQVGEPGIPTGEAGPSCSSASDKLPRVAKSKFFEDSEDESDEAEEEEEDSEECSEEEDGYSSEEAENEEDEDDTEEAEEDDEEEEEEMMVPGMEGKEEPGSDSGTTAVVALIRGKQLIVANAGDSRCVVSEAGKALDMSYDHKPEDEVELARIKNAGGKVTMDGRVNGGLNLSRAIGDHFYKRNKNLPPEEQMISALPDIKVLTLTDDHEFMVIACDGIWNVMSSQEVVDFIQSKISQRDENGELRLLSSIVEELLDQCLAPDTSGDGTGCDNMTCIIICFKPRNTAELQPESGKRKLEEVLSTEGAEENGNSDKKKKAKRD

PRL = assay: as above; assay type: biochemical; conditions: pNPP as substrate
PPM1B-K170A = biological target: T3, PPM1B-K170A (Homo sapiens, UniProt O75688, K170A); assay: pNPP hydrolysis assay with PPM1B mutant; assay type: biochemical; conditions: pNPP substrate, pH 7.0, 37°C
T3 construct: inferred from pET-28a vector and Ni-NTA purification; made in house; host or cells: Escherichia coli BL21
T3 sequence (O75688 1-479 K170A): T1 sequence (O75688 1-479) with K170A
Method: as §1, §2

PPM1B-R33K = biological target: T4, PPM1B-R33K (Homo sapiens, UniProt O75688, R33K); assay: pNPP hydrolysis assay with PPM1B mutant; assay type: biochemical; conditions: pNPP substrate, pH 7.0, 37°C
T4 construct: inferred from pET-28a vector and Ni-NTA purification; made in house; host or cells: Escherichia coli BL21
T4 sequence (O75688 1-479 R33K): T1 sequence (O75688 1-479) with R33K
Method: as §1, §2

Cytotoxicity = assay type: cell-based; conditions: low micromolar range; data not shown

Nc1cc(-c2ccc(-c3ccc(O)c(O)c3)cc2)ccc1C(=O)O [HN252]
inhibition pattern (PPM1B; Lineweaver-Burk plot, pNPP hydrolysis, pH 7.0, 37°C): competitive inhibition; also recorded: classical competitive inhibitor | Ki (PPM1B; Lineweaver-Burk, pNPP, pH 7.0, 37°C, 0.4 μM PPM1B, 40 mM Mn2+): 0.52 ± 0.06 µM | IC50 (PPM1B; pNPP substrate, 0.4 μM PPM1B, 40 mM Mn2+, pH 7.0, 37°C, wild type): 0.76 µM | selectivity: increase in potency against PPM1B than other PSPs (PPM1B; versus PPM1F, PPM1G, PPM1K, PHLPP2, PPM1A a notable exception): about 30 fold | IC50 (PPM1G): 32.6 ± 5.54 µM | IC50 (PRL): > 50 µM | IC50 (PPM1B-K170A): 30.1 ± 5.7 µM | IC50 (PPM1B-R33K): 58.6 ± 10 µM | cytotoxicity (Cytotoxicity): no detectable cytotoxicity
